What was measured:
[1] = Crystallization study, preliminary solvent screening (solubility comments); format: physicochemical
Excerpt: An aliquot of purified compound of formula (Ia) obtained from Example 4 (0.83 L containing about 10 g of compound) was used in the crystallization study.

[2] = Storage stability of crystalline forms of compound of formula (Ia); format: physicochemical
Procedure: Form A of the crystalline anhydrous Compound of formula (Ia) was stable for at least 9 months in industrial packaging (Type III amber glass vial (10 mL) closed by a black plastic screw cap with polyethylene stoppers) at 25° C. and 60% relative humidity and as a free crystalline powder at 80° C. and 60% humidity for 24 hours.
The anhydrous crystalline Form B was characterized by an X-ray powder diffraction (X-RPD) pattern obtained using the copper wavelengths λ1 and λ2 of 1.54056 Å and 1.54439 Å showing a crystalline structure and comprising distinctive reflections, expressed as 20 degrees values, at 4.9, 8.5, 9.8, 11.4, 14.6, 16.5, 17.5, 19.5, 21.4, 27.7, 28.7±0.2 degrees 2θ.

CC1=CC2[C@]3(O)C(C4C(C)(C)[C@]4(O)[C@H](O)[C@H]3C)[C@@H]3O[C@@]34COC(C)(C)O[C@H]4[C@]2(O)C1=O (stereo partly shown) [Compound of formula (Ia)]
Comment (solubility) ([1]; 2-Propanol, 5 V → 10 V, 20-25° C. → reflux, remained dissolved): Remained
Comment (solubility) ([1]; Acetone, 5 V → 10 V, 20-25° C. → reflux, soluble only with 10 V of acetone at reflux): Soluble only
Comment (solubility) ([1]; Acetonitrile, 5 V → 10 V, 20-25° C. → reflux, dissolution observed at reflux): Dissolution
Comment (solubility) ([1]; Dimethylformamide, 5 V → 10 V, 20-25° C., soluble only with 10 V of DMF): Soluble only
Comment (solubility) ([1]; Ethyl acetate, 5 V → 10 V, 20-25° C., remained dissolved): Remained
Comment (solubility) ([1]; Methyl tert-butyl ether, 5 V → 20 V, 20-25° C. → reflux): Not soluble

CC1=CC2[C@]3(O)C(C4C(C)(C)[C@]4(O)[C@H](O)[C@H]3C)[C@@H]3O[C@@]34COC(C)(C)O[C@H]4[C@]2(O)C1=O (stereo partly shown) [Form A]
stable (storage time) ([2]; free crystalline powder, 80° C. and 60% humidity): 24 h
stable (storage time) ([2]; industrial packaging (Type III amber glass vial, 10 mL, screw cap with polyethylene stoppers), 25° C. and 60% relative humidity): at least 9 months
solid form change upon storage ([2]; storage at 5° C. for 5 days): transformed into a dihydrate form
solid form change upon storage ([2]; storage at 25° C. at 80% relative humidity for 68 hours): a new stable anhydrous crystalline form was formed, Form B
solid form change upon storage ([2]; storage at 40° C. at 80% relative humidity for 7 days): a new stable anhydrous crystalline form was formed, Form B

CC1=CC2[C@]3(O)C(C4C(C)(C)[C@]4(O)[C@H](O)[C@H]3C)[C@@H]3O[C@@]34COC(C)(C)O[C@H]4[C@]2(O)C1=O (stereo partly shown) [Form B]
stable unchanged (further storage time) ([2]; 25° C. at 80% relative humidity): ≥ 7 days

CC1=CC2[C@]3(O)C(C4C(C)(C)[C@]4(O)[C@H](O)[C@H]3C)[C@@H]3O[C@@]34COC(C)(C)O[C@H]4[C@]2(O)C1=O (stereo partly shown) [dihydrate form]
solid form change upon storage ([2]; storage at 25° C. and 80% relative humidity for 5 days): transformed back to Form A

From patent publication US20250197417A1, “CRYSTALLINE INTERMEDIATES” (QBIOTICS PTY LTD, priority 2021, published 2025)
